From patent US20170168056A1, “METHODS AND COMPOSITIONS FOR DETECTING AND MODULATING CANCER CELLS” (Massachusetts Institute of Technology, priority 2015, published 2017)

How the values were obtained:
[1] = test system: MDA-MB-231 xenograft tumors; test: Xenograft tumor growth in NOD-SCID mice with chemotherapy treatment; assay type: in vivo, mouse; conditions: three doses Taxol/paclitaxel 10 mg/kg or two doses Doxorubicin 5 mg/kg; for growth of control tumors compared to vehicle: GFP (Control) tumors
Procedure: Mena or Mena^INV expression blocks Taxol efficacy on tumors in treated animals. Mice with xenograft tumors were generated by injection of MDA-MB-231 cells expressing GFP (Control), GFP-Mena (Mena) or GFP-Mena^INV (Mena^INV) into the mammary fat pads of NOD-SCID mice. […] Tumor size was measured before and after treatment. […] These in vivo findings are consistent with the results obtained in the in vitro data, and indicate that Men/Mena^INV promotes resistance to Taxol as judged by tumor growth.
Xenograft tumor generation and in vivo chemotherapy treatment. All animal experiments were approved by the MIT Division of Comparative Medicine. 2 million MDA-MB-231 cells expressing different MENA isoforms (in PBS and 20% collagen I) were injected into the 4th right mammary fat pad of six week-old female NOD-SCID mice (Taconic). When the tumors reached 1 cm in diameter, mice were treated every five days with either three doses of paclitaxel at 10 mg/kg in 1% DMSO, 3% PEG (MW 400), 1% Tween 80 in PBS by intra-peritoneal injection. In parallel, mice were treated with only in 1% DMSO, 3% PEG (MW 400), 1% Tween 80 in PBS as a vehicle control. One day after the last injection, tumors were measured and mice were use for intravital imaging and then sacrificed. Their tumors and lungs were fixed in 10% formalin overnight, their bone marrow were collected using PBS and cultured in DMEM with 10% fetal bovine serum. The number of tumor cell colonies in cultured bone morrow was counted 1 month after collection. The number of metastasis in each lobe of the lung were counted from lung H&E stained sections visualized by light microscopy and counted by two blinded individuals. Each tumor group contained 3-5 mice.
MENA isoform expression is associated with increased tumor growth in vivo during paclitaxel treatment. Whether MENA-associated paclitaxel resistance could also be observed in vivo was examined. Xenograft tumors were generated by injecting MDA-MB-231 cells expressing MENA isoforms into the mammary fat pads of NOD-SCID mice. Mice were treated with paclitaxel once tumors reached 1 cm in diameter (FIG. 30A).

[2] = test system: MDA-MB-231 xenograft tumors; test: Ki67 and cleaved caspase-3 immunostaining of xenograft tumor sections; assay type: in vivo, mouse; conditions: for proliferation (Ki67) in control tumors: MDA-MB-231 control tumors; for proliferation (Ki67) in control tumors / proliferation (Ki67) in Mena and Mena^INV tumors: vs vehicle; for proliferation (Ki67) in Mena and Mena^INV tumors: Mena- and Mena^INV-expressing tumors; for apoptosis (cleaved caspase-3, CC3): all three types of tumor
Description: The effects of increased Mena/Mena^INV levels on taxol treatment in vitro (increased fractions of viable cells) and in vivo (resistance to anti-tumor growth effects) could arise from increased proliferation, decreased apoptosis or both. To evaluate the effects of Mena/Mena^INV on proliferation and cell death, tumor sections were stained with antibodies to Ki67 (a proliferation marker) and cleaved caspase-3 (apopotic marker). […] Therefore, elevated Mena/Mena^INV expression allows continued tumor growth in treated animals by blocking the anti-proliferative effects of taxol treatment.
(§1) Immunohistochemistry for Examples 16-22. Tumors dissected from NOD/SCID mice were fixed in 10% buffered formalin and embedded in paraffin. Tissue sections (5 μm thick) were deparaffinized followed by antigen retrieval using Citra Plus solution (Biogenex). After treatment with 3% H2O2, sections were blocked with serum, incubated with primary antibodies overnight at 4° C. and fluorescently labeled secondary antibodies at room temperature for 2 hours. Sections were stained using anti-MENA (1:500), biotinylated anti-MENA^INV (1:500), anti-CC3 (1:200), anti-Ki67 (1:200) and DAPI. Fluorochromes on secondary antibodies included AlexaFluor 488, 594 or 647 (Jackson Immunoresearch). Sections were mounted in Fluoromount mounting media and imaged at room temperature. Z series of images were taken on a DeltaVision microscope using Softworx acquisition, an Olympus 40×1.3 NA plan apo objective and a Photometrics CoolSNAP HQ camera. At least 10 fields were captured for each tumor, with at least 3 tumors per tumor group.
As such, proliferation and apoptosis was examined by quantifying the intensity of cells positive for Ki67 and CC3, respectively by immunostaining.

Mena, Mena^INV = test: Mena and Mena^INV immunofluorescence in Control tumors from treated mice; assay type: in vivo, mouse; conditions: tissue sections of Control tumors from treated mice
Procedure: Taxol treatment induces increased Mena protein expression in vitro and in vivo. As high level of Mena or Mena^INV expression correlated with low response to Taxo, we hypothesized that Taxol treatment might affect Mena expression. […]. After 72 h of treatment with the drug, the expression level of Mena was 70% higher than in vehicle-treated cells.
as §1, with “Z series of images were taken on a DeltaVision microscope using Softworx acquisition, an Olympus 40×1.3 NA plan apo objective and a Photometrics CoolSNAP HQ camera. At least 10 fields were captured for each tumor, with at least 3 tumors per tumor group.” left out
Paclitaxel treatment selects for high MENA expression in vitro and in vivo. […] First, endogenous MENA expression by Western Blot in 5 breast cancer cell lines that were exposed to 100 nM of paclitaxel or a vehicle control were analyzed (FIG. 33A).

[3] = test system: MDA-MB-231 xenograft tumors; test: Multiphoton intravital imaging of motile tumor cells; assay type: in vivo, mouse
Procedure: Intravital imaging. Intravital multiphoton imaging was performed as described previously (Oudin M J, et al. Tumor cell-driven extracellular matrix remodeling enables haptotaxis during metastatic progression. Cancer Discov. 2016; Available from: www.ncbi.nlm.nih.gov/pubmed/26811325) using a 25×1.05 NA water immersion objective with correction lens. After exposing the tumor with a skin flap surgery, 30 minute movies were captured. The number of motile cells in each field of view were count in ten 30 minute time-lapse movies using ImageJ. Motile cells were cells who show any displacement of the nucleus and cell protrusion activity. Data were pooled from 2-4 mice per tumor group, with 4-10 fields imaged per mouse.
MENA and MENA^INV drive increased cell motility and metastasis during tumor progression. Therefore, whether MENA isoform expression impacts cell migration and dissemination after paclitaxel treatment was examined.

microtubules (MT) = test: MT length image analysis; assay type: cell-based, human; conditions: 231-MENA^INV cells, 10 nM paclitaxel 24 hours
MDA-MB-231 cells = test: Proliferation assay (cell count) with combinations of paclitaxel and MEKi; assay type: cell-based, human; conditions: 231-MENA and 231-MENA^INV cells

## CC(=O)O[C@H]1C(=O)[C@@]2(C)[C@H]([C@H](OC(=O)c3ccccc3)[C@]3(O)C[C@H](OC(=O)[C@H](O)[C@@H](NC(=O)c4ccccc4)c4ccccc4)C(C)=C1C3(C)C)[C@]1(OC(C)=O)CO[C@@H]1C[C@@H]2O [paclitaxel]
[1]
  growth of control tumors compared to vehicle: significantly decreased the growth of 231-Control tumors
[1]; listed as Taxol
  growth of control tumors compared to vehicle: significantly decreased growth of control tumors
[1]; Mena or Mena^INV expressing tumors
  growth / response of Mena or Mena^INV tumors: unaffected
[2]
  proliferation (Ki67) in control tumors: decreased the amount of Ki67 staining
  proliferation (Ki67) in Mena and Mena^INV tumors: failed to decrease the numbers of Ki67-positive cells
  apoptosis (cleaved caspase-3, CC3): increase in cell death as marked by CC3 positive cells in all tumors
[2]; listed as Taxol
  proliferation (Ki67) in control tumors: significantly decreased
  proliferation (Ki67) in Mena and Mena^INV tumors: failed to decrease proliferation
  apoptosis (cleaved caspase-3, CC3): similar, significant apoptotic responses
Mena, Mena^INV
  Mena and Mena^INV levels in Control tumors compared to vehicle: significant increases in total MENA levels
Mena, Mena^INV; listed as Taxol
  Mena and Mena^INV levels in Control tumors compared to vehicle: increase in expression of both global Mena levels and the Mena^INV isoform
[3]; 231-Control tumors
  number of cells moving within tumors: significantly reduced
[3]; 231-MENA and 231-MENA^INV tumors
  motility of tumor cells in vivo: not affected
Microtubules (MT)
  MT length: small but significant increase
MDA-MB-231 cells
  concentrations needed to obtain high levels of cell death relative to 231-Control cells: higher concentrations of each drug were needed
